Reference: PubChem BioAssay AID330 (DTP/NCI, 2004)
Values joined by “and” are separate entries in the source; they are usually repeats but may differ in a detail not shown here. Identical values can stand only once. Toxic doses and inconclusive results are not listed. The calls were made as follows: active = survival T/C of 150% or more; inactive = T/C below 125% in these data.

System: P388 leukemia ip, CD2F1 mice, survival T/C
Experiment: NCI In Vivo Anticancer Drug Screen. Data for tumor model P388 Leukemia (intraperitoneal) in CD2F1 (CDF1) mice
Details: endpoint: median survival time, higher = longer survival
How it was run: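 Mice carrying the transplanted tumor received test compound or vehicle. Survival was recorded in each group, and the value is the treated-group measurement divided by that of the vehicle-treated control group.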

[1] = dose: 50.0 mg/kg/injection, schedule: Q01DX005 (ip), vehicle: Klucel (hydroxypropylcellulose) (HPC)
[2] = dose: 100.0 mg/kg/injection, schedule: Q01DX005 (ip), vehicle: Klucel (hydroxypropylcellulose) (HPC)
[3] = dose: 200.0 mg/kg/injection, schedule: Q01DX005 (ip), vehicle: Klucel (hydroxypropylcellulose) (HPC)
[4] = dose: 7.5 mg/kg/injection, schedule: Q01DX009 (ip), vehicle: saline with Tween-80
[5] = dose: 15.0 mg/kg/injection, schedule: Q01DX009 (ip), vehicle: saline with Tween-80
[6] = dose: 30.0 mg/kg/injection, schedule: Q01DX009 (ip), vehicle: saline with Tween-80
[7] = dose: 50.0 mg/kg/injection, schedule: Q01DX009 (ip), vehicle: Klucel (hydroxypropylcellulose) (HPC)
[8] = dose: 100.0 mg/kg/injection, schedule: Q01DX009 (ip), vehicle: Klucel (hydroxypropylcellulose) (HPC)
[9] = dose: 200.0 mg/kg/injection, schedule: Q01DX009 (ip), vehicle: Klucel (hydroxypropylcellulose) (HPC)
[10] = dose: 50.0 mg/kg/injection, schedule: Q01DX009 (ip), vehicle: saline with Tween-80
[11] = dose: 100.0 mg/kg/injection, schedule: Q01DX009 (ip), vehicle: saline with Tween-80
[12] = dose: 200.0 mg/kg/injection, schedule: Q01DX009 (ip), vehicle: saline with Tween-80
[13] = dose: 50.0 mg/kg/injection, schedule: Q01DX005 (ip), vehicle: saline with Tween-80
[14] = dose: 100.0 mg/kg/injection, schedule: Q01DX005 (ip), vehicle: saline with Tween-80
[15] = dose: 200.0 mg/kg/injection, schedule: Q01DX005 (ip), vehicle: saline with Tween-80
[16] = dose: 15.0 mg/kg/injection, schedule: Q01DX005 (ip), vehicle: saline with Tween-80
[17] = dose: 30.0 mg/kg/injection, schedule: Q01DX005 (ip), vehicle: saline with Tween-80
[18] = dose: 60.0 mg/kg/injection, schedule: Q01DX005 (ip), vehicle: saline with Tween-80
[19] = dose: 12.5 mg/kg/injection, schedule: Q01DX009 (ip), vehicle: saline
[20] = dose: 25.0 mg/kg/injection, schedule: Q01DX009 (ip), vehicle: saline
[21] = dose: 100.0 mg/kg/injection, schedule: Q04DX003 (ip), vehicle: Klucel (hydroxypropylcellulose) (HPC)
[22] = dose: 200.0 mg/kg/injection, schedule: Q04DX003 (ip), vehicle: Klucel (hydroxypropylcellulose) (HPC)
[23] = dose: 400.0 mg/kg/injection, schedule: Q04DX003 (ip), vehicle: Klucel (hydroxypropylcellulose) (HPC)

Measured: T/C

CC(C)(C)OC(=O)N1CCc2c([nH]oc2=O)C1
inactive: dose: 50.0 mg/kg/injection, schedule: Q01DX009 (ip), vehicle: suspension in saline 92 % of control | dose: 100.0 mg/kg/injection, schedule: Q01DX009 (ip), vehicle: suspension in saline 90 % of control | dose: 200.0 mg/kg/injection, schedule: Q01DX009 (ip), vehicle: suspension in saline 90 % of control

O=C1C=C\C(=C/C=C\C=C2/C=CC(=O)O2)O1
inactive: [1] 93 % of control | [2] 100 % of control | [3] 96 % of control

O=C1C2CC=C3CCCC3C2C(=O)C2CC=C3CCCC3C12 (stereo not drawn)
inactive: [4] 105 % of control | [5] 102 % of control | [6] 106 % of control

COc1ccccc1Nc1n[nH]c(=S)s1
inactive: [7] 121 % of control | [8] 105 % of control | [9] 95 % of control

O=C(c1ccc2c(c1)OCO2)N1OC2C=CC1CC2 (stereo not drawn)
inactive: [10] 98 % of control | [11] 96 % of control | [12] 98 % of control

C=C1C(=O)O[C@H]2C3OC3(C)CC/C=C(/C(=O)OC)[C@@H](OC(C)=O)[C@H](OC(=O)C3(C)OC3C)[C@H]12 (stereo partly drawn)
inactive: dose: 1.87 mg/kg/injection, schedule: Q01DX009 (ip), vehicle: Klucel (hydroxypropylcellulose) (HPC) 112 % of control | dose: 3.75 mg/kg/injection, schedule: Q01DX009 (ip), vehicle: Klucel (hydroxypropylcellulose) (HPC) 108 % of control | dose: 7.5 mg/kg/injection, schedule: Q01DX009 (ip), vehicle: Klucel (hydroxypropylcellulose) (HPC) 107 % of control

COc1cccc2c1C(=O)c1c(O)c3c(c(O)c1C2=O)CC(O)(C(C)=O)CC3OC1CC(NC(=O)C(N)CCCCN)C(O)C(C)O1 (stereo not drawn)
inactive: dose: 2.5 mg/kg/injection, schedule: Q04DX003 (ip), vehicle: water 101 % of control | dose: 5.0 mg/kg/injection, schedule: Q04DX003 (ip), vehicle: water 101 % of control and 103 % of control | dose: 10.0 mg/kg/injection, schedule: Q04DX003 (ip), vehicle: distilled water + Tween-80 95 % of control | dose: 10.0 mg/kg/injection, schedule: Q04DX003 (ip), vehicle: water 101 % of control and 109 % of control | dose: 20.0 mg/kg/injection, schedule: Q04DX003 (ip), vehicle: distilled water + Tween-80 96 % of control | dose: 20.0 mg/kg/injection, schedule: Q04DX003 (ip), vehicle: water 109 % of control and 118 % of control | dose: 40.0 mg/kg/injection, schedule: Q04DX003 (ip), vehicle: distilled water + Tween-80 105 % of control | dose: 40.0 mg/kg/injection, schedule: Q04DX003 (ip), vehicle: water 106 % of control and 122 % of control | dose: 80.0 mg/kg/injection, schedule: Q04DX003 (ip), vehicle: distilled water + Tween-80 112 % of control | dose: 80.0 mg/kg/injection, schedule: Q04DX003 (ip), vehicle: water 118 % of control

COc1cccc(/C=N/NC(=O)c2c(-c3ccccc3)noc2C)c1O
inactive: [10] 99 % of control | [11] 100 % of control | [12] 110 % of control

COC(=O)/C=C1/C2C=CC(O2)C1C(=O)OC (stereo not drawn)
inactive: [13] 96 % of control | [14] 99 % of control | [15] 97 % of control

[N-]=[N+]=NC(=O)c1cnn(-c2ccccc2)c1N
inactive: [16] 101 % of control | [17] 97 % of control | [18] 106 % of control and 95 % of control

CCCCCCCCCCCCCCCC[N+](C)(C)CC#N
inactive: [19] 100 % of control | [20] 89 % of control

C=C/C=C/NC(=O)OCc1ccccc1
inactive: [10] 100 % of control | [11] 105 % of control | [12] 102 % of control

COc1ccc(S(N)(=O)=O)cc1[N+](=O)[O-]
inactive: [21] 97 % of control | [22] 104 % of control | [23] 97 % of control

Cc1ccc(Nc2ccc(Nc3ccc(C)cc3)c3c2C(=O)c2cccc(O)c2C3=O)cc1
inactive: [10] 101 % of control | [11] 95 % of control | [12] 97 % of control

CN(C)Cc1cn(C[Si](C)(C)C)c2ccccc12
inactive: [18] 112 % of control

CC(O)C(O)C=O (stereo not drawn)
inactive: dose: 248.0 mg/kg/injection, schedule: Q01DX010 (ip), vehicle: saline 110 % of control

CCCCCCCCCCCC(=O)Nc1ncc([N+](=O)[O-])s1
inactive: [7] 101 % of control | [8] 102 % of control | [9] 106 % of control

Cc1nn(C(=O)c2ccncc2)c(C)c1N=Nc1c(C)[nH]n(-c2ccccc2)c1=O
inactive: [21] 95 % of control | [22] 102 % of control | [23] 101 % of control

Oc1cccc(NCNC2Nc3ccccc3N2)c1
inactive: [16] 94 % of control | [17] 95 % of control

C1CCC(N2CCOCC2)CC1
inactive: [19] 99 % of control | [20] 117 % of control | dose: 50.0 mg/kg/injection, schedule: Q01DX009 (ip), vehicle: saline 100 % of control and 101 % of control

CS(=O)(=O)OCCN1C(=O)CNC1=O
inactive: dose: 12.5 mg/kg/injection, schedule: Q04DX003 (ip), vehicle: saline 99 % of control | dose: 25.0 mg/kg/injection, schedule: Q04DX003 (ip), vehicle: saline 106 % of control | dose: 50.0 mg/kg/injection, schedule: Q04DX003 (ip), vehicle: saline 99 % of control | dose: 100.0 mg/kg/injection, schedule: Q04DX003 (ip), vehicle: saline 101 % of control | dose: 200.0 mg/kg/injection, schedule: Q04DX003 (ip), vehicle: saline 101 % of control | dose: 400.0 mg/kg/injection, schedule: Q04DX003 (ip), vehicle: saline 99 % of control

CCCCCCCCCCCCCCCCSCC(COC)COP(=O)([O-])OCC[N+](C)(C)C (stereo not drawn)
inactive: dose: 1.25 mg/kg/injection, schedule: Q01DX005 (oral), vehicle: saline 109 % of control | dose: 2.5 mg/kg/injection, schedule: Q01DX005 (oral), vehicle: saline 106 % of control | dose: 5.0 mg/kg/injection, schedule: Q01DX005 (oral), vehicle: saline 110 % of control | dose: 10.0 mg/kg/injection, schedule: Q01DX005 (oral), vehicle: saline 110 % of control | dose: 20.0 mg/kg/injection, schedule: Q01DX005 (oral), vehicle: saline 109 % of control | dose: 40.0 mg/kg/injection, schedule: Q01DX005 (oral), vehicle: saline 108 % of control

COc1ccc(C(=O)N2C=CC(=Cc3ccccc3)C=C2)cc1
inactive: dose: 6.25 mg/kg/injection, schedule: Q01DX009 (ip), vehicle: Klucel (hydroxypropylcellulose) (HPC) 103 % of control | dose: 12.5 mg/kg/injection, schedule: Q01DX009 (ip), vehicle: Klucel (hydroxypropylcellulose) (HPC) 102 % of control | dose: 25.0 mg/kg/injection, schedule: Q01DX009 (ip), vehicle: Klucel (hydroxypropylcellulose) (HPC) 97 % of control

O=S(=O)(O)CN(CS(=O)(=O)O)c1nc(N(CS(=O)(=O)O)CS(=O)(=O)O)nc(N(CS(=O)(=O)O)CS(=O)(=O)O)n1
inactive: [13] 92 % of control | [14] 99 % of control | [15] 101 % of control

CC(C)(C)N(C(=O)OCC1c2ccccc2-c2ccccc21)C(CO)C(=O)O (stereo not drawn)
inactive: [1] 100 % of control | [2] 107 % of control

COc1cc2c(c(OC)c1OC)-c1ccc(OC)c(=O)cc1C(NC(=O)CO)CC2 (stereo not drawn)
inactive: dose: 0.16 mg/kg/injection, schedule: Q01DX009 (ip), vehicle: Klucel (hydroxypropylcellulose) (HPC) 104 % of control and 111 % of control
active: dose: 0.62 mg/kg/injection, schedule: Q01DX009 (ip), vehicle: Klucel (hydroxypropylcellulose) (HPC) 153 % of control and 157 % of control

COc1cccc(NC2=NCCS2)c1
inactive: [13] 102 % of control | [14] 105 % of control | [15] 98 % of control

O=C(O)CC(NC(=O)c1ccccc1)C(=O)O (stereo not drawn)
inactive: [13] 96 % of control | [14] 102 % of control | [15] 92 % of control

c1ccc(CSc2nn[nH]n2)cc1
inactive: [21] 96 % of control | [22] 102 % of control | [23] 101 % of control

[SeH]c1ccccc1
inactive: [4] 106 % of control | [5] 113 % of control | [6] 116 % of control

Cn1cnc([N+](=O)[O-])c1Sc1nnc(-c2ccccc2)c(-c2ccccc2)n1
inactive: [1] 88 % of control | [2] 86 % of control | [3] 92 % of control
